This is an account of results in ChEMBL document CHEMBL4680281, “Recent Advances on Nitrones Design for Stroke Treatment” (J Med Chem, 2020).

A short description of data set [1]: Antioxidant activity assessed as SIN1-induced ONOO scavenging activity at 1 uM incubated for 1250 secs by chemiluminescence method relative to control. It counts as functional. Conditions: time 1250.0 sec.
A short description of data set [2]: Antioxidant activity assessed as SIN1-induced ONOO scavenging activity at 1 mM incubated for 1250 secs by chemiluminescence method relative to control. The format is functional. Conditions: time 1250.0 sec.
A further data set has as its system Rattus norvegicus. The data set can be described thus: Neuroprotective activity in Sprague-Dawley rat model of permanent middle cerebral artery occlusion assessed as infarction volume at 80 mg/kg, ip administered 2 hr post MCAO induction and measured 14 hrs post MCAO challenge by TTC staining based assay (reference value: 27.5%). The format is functional. To be noted: time 12 hrs.

Data set [3] can be described thus: Drug concentration in Sprague-Dawley rat brain at 80 mg/kg, iv measured after 5 mins by reverse-phase HPLC method. The format is ADME, organism-based. To be noted: read-out: Ct.

In the case of `Cc1nc(C)c(/C=[N+](\[O-])C(C)(C)C)nc1C`, the values for the Activity (in data set [1]; in data set [2]; with Rattus norvegicus) were 35.3%, 94.7% and 20.3%, respectively. In addition, in data set [3], the concentration at 5 min is 650 µM.
